Test system: S. exigua larvae
Assay: growth inhibition and mortality of synthetic avocadofurans and triolein in diet bioassay
Type: in vivo, Spodoptera exigua
Method: S. exigua larvae were used in all experiments. Larvae were reared on artificial diet modified from U.S.D.A. Agric. Res. Serv., Prod. Res. Rep., 1208:1 (1969), and maintained at 28+2° C., 14:10; light:dark (L:D) photoperiod.
The colony was collected from Orange Co., Calif. and had new genetic material added within 12 months prior to the study. The age of the cohorts tested was standardized by using neonates within 12 hours of eclosion. All bioassays were maintained at 28+2° C. 75% relative humidity (RH), and at 14:10 (L:D) photoperiod with fluorescent lighting.
The insecticidal activity of the fractions was tested with artificial diet bioassays. Treated diets were prepared by transferring 750 μl of acetone solutions of each fraction (equivalent to 300 mg crude idioblast cell oil) into 50-ml polypropylene centrifuge tubes (Fisher, Pittsburgh Pa.), evaporating the acetone, adding 2 ml of 0.1% Tween-80 solution (Fisher), homogenizing with an ultrasonic homogenizer (Co le-Parmer, Chicago Ill.), and adding prepared diet to produce a final weight of 15 g containing the equivalent of 2% idioblast oil. The mixture was vortexed for 3 mm.
Control diet was prepared by mixing 2 ml of Tween solution and 13 g of artificial diet to produce a final weight of 15 g. Control and treated diets were poured into 24-well (15.9 mm diameter and 15.9 mm depth) bioassay trays (C-D International Inc., Pitman N.J.). One neonate was added per well, and trays were placed in an incubator under the previously described conditions. Twenty-four neonates were tested for each fraction and control. Mortality and larval weights were recorded after 7 days.
The effect of the synthetically produced avocado furan compounds (>95% purity) and commercially available triolein (Sigma, St. Louis, Mo.) were tested on larval growth and mortality of S exigua. Treated and control diet were prepared as previously described.
Six different compound concentrations, chosen on the basis of studies with the oil fractions, were evaluated for both 2-(pentadecyl)furan and 2-(heptadecyl)furan: 0 (control), 600, 750, 900, 1050, and 1200 μg/g. Also, six concentrations of triolein (subfraction 1-1-12) were tested: 0 (control), 7000, 8000, 9000, 10000, and 11000 μg/g.
Twenty-four neonates were used per treatment. Bioassays were conducted as described in Example 4, and replicated 4 times for each concentration (i.e., a total of 96 larvae were tested for each concentration). Larval weight, instar, and mortality were recorded after 7 days […].
EC (effective concentration) values were calculated by subtracting the mean larval weight for each treatment from the mean weight of the controls, and dividing by the mean weight of the controls. LC (lethal concentration) values were obtained using probit analysis as described in Probit Analysis (1971) Cambridge University Press, Cambridge, UK. GI (growth index) and RGI (relative growth index) values were calculated as described in J. Chem. Ecol., 19:1109 (1993), but using an imax of 3 (the stage attained by most control larvae after 7 d). Statistical comparisons were conducted using SuperAnova Abacus Concept Inc., Berkeley, Calif. (1989).

With `CCCCC/C=C\C/C=C\CCCCCCCc1ccco1` [2-(8Z,11Z-heptadecadienyl)furan] as the compound, how does the “inhibition of S. exigua growth compared to control larvae” value (1600 μg/g) read?
Its value is 54.51%.

What about the mortality at 1600 µg/g (Spodoptera exigua, feed or water, 1600 μg/g) of the same compound?
Its mortality at 1600 µg/g is < 5%.

What about the “active concentration relative to the saturated compound (4)” value (in vivo) of the same compound?
Its value is “twice as high as the saturated compound (4)”.

And the “comparative toxicity and growth inhibition” value (in words)?
Its value is “of much lower toxicity than 2-(heptadecyl)furan (4)”.

And the “concentration at which S. exigua growth is inhibited / compound active” value (lowest active concentration, in diet)?
Its value is ≥ 1600 µg/g.
